One assay relates to GDF8. In words: AlphaScreen SureFire p-SMAD3 (Ser423/425) assay, GDF8-stimulated cells. The format is cell-based. The note with it: Mus musculus. The method in brief:
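Lysate (5 μL) went into 384-well shallow plates with 5 μL of Reaction Buffer, Activation Buffer and AlphaScreen Acceptor bead mix. Plates were sealed, kept dark and shaken for 2 hours at room temperature. Donor beads in dilution buffer (2 μL) were added for another 1½ hours, and p-SMAD3 signal was read on a Synergy-4 or Enspire reader.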
A general note: Bead proximity is the source of the signal in Alpha formats.

The next assay has as its system TGF-β. In words: AlphaScreen SureFire p-SMAD3 (Ser423/425) assay, TGF-β-stimulated cells. The format is cell-based. The note with it: Mus musculus. The method in brief: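 The p-SMAD-3 (Ser423/425) SureFire assay measured phosphorylation of endogenous SMAD-3 in cell lysates. Cells were plated overnight in collagen-coated plates, exposed to three-fold serially diluted compounds for about 10 minutes, then stimulated with TGFβ. Lysates (5 μL) received acceptor bead mix for 2 hours, then donor beads for 1½ hours before AlphaScreen reading.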

Where [1] appears, read: MPC-11, p-SMAD3 (Ser423/425) AlphaScreen in cell lysate, MPC11, GDF8 stimulation, read-out: GDF8: inhibition of GDF8 signaling, GDF pSMAD (MPC11).
[2] abbreviates: p-SMAD3 (Ser423/425) AlphaScreen in cell lysate, MPC-11, TGF-β stimulation, read-out: TGF-β: inhibition of TGF-β signaling, TGF-β pSMAD (MPC-11).
Where [3] appears, read: MPC-11, read-out: GDF8: inhibition of GDF8 signaling, GDF pSMAD (MPC11), p-SMAD3 (Ser423/425) AlphaScreen in cell lysate, GDF8 stimulation.
The mark [4] stands for this setting: MPC-11, read-out: TGF-β: inhibition of TGF-β signaling, TGF-β pSMAD (MPC-11), p-SMAD3 (Ser423/425) AlphaScreen in cell lysate, TGF-β stimulation.

SMILES strings stand for the structures. pIC50: −log10 of the molar value. Read-outs that look alike come from different tables or passages of the source.

Consider `Cc1cc(-c2nc3n(c2-c2ccc4ncsc4c2)CCC3)ccc1F` [Compound 173, 6-(2-(4-fluoro-3-methylphenyl)-6,7-dihydro-5H-pyrrolo[1,2-a]imidazol-3-yl)benzo[d]thiazole], for which the pIC50 in the assay with GDF8 (setting [1]) was more than 7.30; in the assay with TGF-β (setting [2]), 7.00 to 7.30.

As for `Cc1cccc(-c2nc3occn3c2-c2ccc3nccnc3c2)c1` [Compound 142, 5-(quinoxalin-6-yl)-6-(m-tolyl)imidazo[2,1-b]oxazole], the pIC50 in the assay with GDF8 (setting [1]) and in the assay with TGF-β (setting [2]) was more than 7.30 throughout.

For `Fc1cc(F)c(F)c(-c2nc3n(c2-c2ccc4ncnn4c2)CCC3)c1` [Compound 17, 6-(2-(2,3,5-trifluorophenyl)-6,7-dihydro-5H-pyrrolo[1,2-a]imidazol-3-yl)-[1,2,4]triazolo[1,5-a]pyridine], the pIC50 is 6.00 to 7.00 in the assay on GDF8 (setting [1]) and less than 6.00 in the assay on TGF-β (setting [2]).

On to `Fc1ccccc1-c1nc2n(c1-c1ccc3ncsc3c1)CCC2` [Compound 199, 6-(2-(2-fluorophenyl)-6,7-dihydro-5H-pyrrolo[1,2-a]imidazol-3-yl)benzo[d]thiazole], for which the pIC50 in the assay with GDF8 (setting [1]) and with TGF-β (setting [2]) was 6.00 to 7.00 in each case.

On to `Fc1ccc(-c2nc3n(c2-c2ccc4cn[nH]c4c2)CCC3)c(F)c1` [Compound 202, 6-(2-(2,4-difluorophenyl)-6,7-dihydro-5H-pyrrolo[1,2-a]imidazol-3-yl)-1H-indazole], for which the figures for the pIC50 in the assay with GDF8 (setting [1]) and with TGF-β (setting [2]) were 7.00 to 7.30 and 6.00 to 7.00, respectively.

Turning to `Fc1cc(-c2nc3n(c2-c2ccc4ncsc4c2)CCC3)c(F)cc1Cl` [Compound 240, 6-(2-(4-chloro-2,5-difluorophenyl)-6,7-dihydro-5H-pyrrolo[1,2-a]imidazol-3-yl)benzo[d]thiazole], the figures for the pIC50 in the assay with GDF8 (setting [1]) and with TGF-β (setting [2]) were 6.00 to 7.00 and less than 6.00, respectively.

For the compound `Fc1cccc(F)c1-c1nc2n(c1-c1ccc3nccn3c1)CCC2` [Compound 11], the pIC50 in the assay with GDF8 (setting [1]) was 6.00 to 7.00; in the assay on TGF-β (setting [2]), less than 6.00.

For the compound `Cc1ccc(F)cc1-c1nc2n(c1-c1ccc3ncnn3c1)CCC2` [Compound 58, 6-(2-(5-fluoro-2-methylphenyl)-6,7-dihydro-5H-pyrrolo[1,2-a]imidazol-3-yl)-[1,2,4]triazolo[1,5-a]pyridine], the pIC50 in the assay with GDF8 (setting [1]) and in the assay on TGF-β (setting [2]) was less than 6.00 in each case.

As to `Cc1cc(F)c(-c2nc3n(c2-c2ccc4[nH]ncc4c2)CCC3)cc1F` [Compound 284, 5-(2-(2,5-difluoro-4-methylphenyl)-6,7-dihydro-5H-pyrrolo[1,2-a]imidazol-3-yl)-1H-indazole], the pIC50 in the assay on GDF8 (setting [3]) and with TGF-β (setting [4]) was less than 6.00 throughout.

For `Cc1c(F)ccc(-c2nc3n(c2-c2ccc4ncccc4c2)CCC3)c1C` [Compound 331, 6-(2-(4-fluoro-2,3-dimethylphenyl)-6,7-dihydro-5H-pyrrolo[1,2-a]imidazol-3-yl)quinoline], the pIC50 in the assay on GDF8 (setting [3]) and in the assay on TGF-β (setting [4]) was less than 6.00 throughout.

Take `Fc1cc(-c2nc3n(c2-c2ccc4nnc(C(F)(F)F)n4c2)CCC3)cc(F)c1F` [Compound 33, 3-(trifluoromethyl)-6-(2-(3,4,5-trifluorophenyl)-6,7-dihydro-5H-pyrrolo[1,2-c]imidazol-3-yl)-[1,2,4]triazolo[4,3-c]pyridine]: the pIC50 in the assay with GDF8 (setting [1]) and in the assay on TGF-β (setting [2]) was less than 6.00 each time.

Regarding `Clc1cccc(-c2nc3n(c2-c2ccc4[nH]ncc4c2)CCC3)c1` [Compound 189, 5-(2-(3-chlorophenyl)-6,7-dihydro-5H-pyrrolo[1,2-a]imidazol-3-yl)-1H-indazole], the pIC50 in the assay on GDF8 (setting [3]) is 7.00 to 7.30; in the assay on TGF-β (setting [4]) it was 6.00 to 7.00.

With `Fc1ccc(-c2nc3n(c2-c2ccc4ncccc4c2)CCC3)cc1Cl` [Compound 267, 6-(2-(3-chloro-4-fluoropheny)-6,7-dihydro-5H-pyrrolo[1,2-a]imidazol-3-yl)quinoline], the pIC50 in the assay on GDF8 (setting [1]) and with TGF-β (setting [2]) was 6.00 to 7.00 throughout.

As to `Cc1cccc(-c2nc3occn3c2-c2ccc3nccn3c2)c1` [Compound 143, 6-(m-tolyl)-5-(imidazo[1,2-a]pyridin-6-yl)imidazo[2,1-b]oxazole], the pIC50 with GDF8 (setting [1]) and with TGF-β (setting [2]) was more than 7.30 in each case.

For the origin of these results see patent US10696693B2, “Fused imidazole derivatives as TGF-beta inhibitors” (Rigel Pharmaceuticals, Inc., priority 2014, dated 2020).
